# Experimental data: paper PMC3692405, “Disease-associated mutations in CNGB3 promote cytotoxicity in photoreceptor-derived cells” (Molecular Vision, 2013)
# Like-named read-outs stand apart in the source and are kept apart here.
# How the values were obtained:
# [1] = biological target: T1, WT human CNGA3 plus WT CNGB3 heteromeric channels (Homo sapiens, UniProt Q16281+Q9NQW8); test: Inside-out patch-clamp recording of channels expressed in Xenopus oocytes (WT heteromeric); assay type: biochemical
# T1 construct: expressed in transfected cells; host or cells: Xenopus laevis oocytes injected with cRNA transcribed from pGEMHE constructs
# T1 sequence (Q16281 1-694): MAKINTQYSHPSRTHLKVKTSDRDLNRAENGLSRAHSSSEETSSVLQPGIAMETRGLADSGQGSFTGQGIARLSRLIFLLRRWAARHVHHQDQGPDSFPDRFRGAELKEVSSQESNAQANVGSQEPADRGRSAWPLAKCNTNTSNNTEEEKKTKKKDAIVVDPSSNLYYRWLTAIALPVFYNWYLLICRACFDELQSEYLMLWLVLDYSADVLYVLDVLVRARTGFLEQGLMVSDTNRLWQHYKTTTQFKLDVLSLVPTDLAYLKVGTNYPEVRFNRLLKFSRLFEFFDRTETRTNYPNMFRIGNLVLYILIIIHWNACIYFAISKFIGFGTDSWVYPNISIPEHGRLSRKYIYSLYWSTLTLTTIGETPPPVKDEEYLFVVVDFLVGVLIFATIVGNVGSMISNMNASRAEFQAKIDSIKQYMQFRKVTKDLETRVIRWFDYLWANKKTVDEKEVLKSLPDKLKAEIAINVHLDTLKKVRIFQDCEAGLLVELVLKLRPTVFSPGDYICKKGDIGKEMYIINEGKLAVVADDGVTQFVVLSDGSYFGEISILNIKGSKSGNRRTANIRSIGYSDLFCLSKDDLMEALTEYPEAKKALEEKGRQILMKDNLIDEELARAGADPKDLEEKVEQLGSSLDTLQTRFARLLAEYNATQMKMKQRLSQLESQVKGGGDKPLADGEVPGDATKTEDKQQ
# T1 sequence (Q9NQW8 1-809): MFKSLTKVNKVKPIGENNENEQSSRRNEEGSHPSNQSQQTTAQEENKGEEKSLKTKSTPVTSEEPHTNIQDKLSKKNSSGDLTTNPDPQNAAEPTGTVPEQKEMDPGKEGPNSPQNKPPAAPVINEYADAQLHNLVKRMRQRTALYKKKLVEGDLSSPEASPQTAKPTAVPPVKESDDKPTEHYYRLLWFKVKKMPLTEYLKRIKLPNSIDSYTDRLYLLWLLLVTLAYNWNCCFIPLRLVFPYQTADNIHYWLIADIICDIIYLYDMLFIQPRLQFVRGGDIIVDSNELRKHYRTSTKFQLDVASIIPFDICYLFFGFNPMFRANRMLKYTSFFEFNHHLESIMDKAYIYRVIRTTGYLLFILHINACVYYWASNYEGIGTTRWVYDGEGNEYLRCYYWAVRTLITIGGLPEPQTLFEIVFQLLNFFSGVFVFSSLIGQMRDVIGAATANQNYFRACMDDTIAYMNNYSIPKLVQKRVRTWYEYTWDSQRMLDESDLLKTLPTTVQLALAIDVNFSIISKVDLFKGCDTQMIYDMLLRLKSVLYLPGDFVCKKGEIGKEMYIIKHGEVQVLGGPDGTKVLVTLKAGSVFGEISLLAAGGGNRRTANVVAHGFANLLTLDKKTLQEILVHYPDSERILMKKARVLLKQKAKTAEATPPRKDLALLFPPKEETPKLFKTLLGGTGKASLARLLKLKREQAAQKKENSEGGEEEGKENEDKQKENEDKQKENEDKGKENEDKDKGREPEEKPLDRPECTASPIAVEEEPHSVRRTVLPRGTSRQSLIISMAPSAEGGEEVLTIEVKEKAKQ
# Experimental: (§1) For heterologous expression in Xenopus laevis oocytes, identical amounts of cDNA were linearized using SphI or NheI, and capped cRNA was transcribed in vitro using the T-7 RNA polymerase mMESSAGE mMACHINE® kit (Ambion, Austin, TX). cRNA concentrations and relative amounts were determined by denaturing gel electrophoresis and KODAK 1D image analysis software (Rochester, NY), as well as by spectrophotometry. […] Oocytes were incubated in ND96 (96 mM NaCl, 2 mM KCl, 1.8 mM CaCl2, 1 mM MgCl2, and 5 mM HEPES, pH 7.6, supplemented with 10 μg/ml gentamycin).
# Two to seven days after microinjection of cRNA, patch-clamp experiments were performed using the inside-out configuration with an Axopatch 200B amplifier (Axon Instruments, Foster City, CA). Recordings were made at 20–23 °C. Data were acquired using Pulse software (HEKA Elektronik, Lambrecht, Germany). Current traces were elicited by voltage steps from a holding potential of 0 mV to +80 mV, then to −80 mV and back to 0 mV. Initial pipette resistances were 0.4–0.8 megaohms. Intracellular and extracellular solutions contained 130 mM NaCl, 0.2 mM EDTA, and 3 mM HEPES (pH 7.2). Intracellular solutions were exchanged using an RSC-160 rapid solution changer (Molecular Kinetics, Indianapolis, IN). Currents in the absence of cyclic nucleotides were subtracted. For channel activation by CPT-cGMP or CPT-cAMP, dose–response data were fitted with the Hill equation, I/Imax=([cNMP]^h/(K1/2^h + [cNMP]^h)), where I is the current amplitude at +80 mV, Imax is the maximum current elicited by saturating concentration of ligand, [cNMP] is the ligand concentration, K1/2 is the apparent ligand affinity, and h is the Hill slope. We measured sensitivity to block by L-cis-diltiazem (RBI, Natick, MA) applied to the intracellular face of the patch in the presence of 0.1 μM CPT-cGMP. Data were fit with a modified Hill equation in the form I blocker/I=(K1/2^h/(K1/2^h + [blocker]^h)). Data were analyzed using Igor (Wavemetrics, Lake Oswego, OR), SigmaPlot, and SigmaStat (Systat Software Inc., San Jose, CA). All values are reported as the mean±standard error of the mean of n experiments unless otherwise indicated. Statistical significance was determined using a Student t test or Mann–Whitney rank sum test, and a p value of <0.05 was considered significant.
# [2] = biological target: T2, homomeric CNGA3-only channels (Homo sapiens, UniProt Q16281); test: Inside-out patch-clamp recording of channels expressed in Xenopus oocytes (CNGA3 only); assay type: biochemical; conditions: +80 mV, Hill fit, mean±SEM, n=9
# T2 construct: expressed in transfected cells; host or cells: Xenopus laevis oocytes injected with cRNA transcribed from pGEMHE constructs
# T2 sequence (Q16281 1-694): T1 sequence (Q16281 1-694)
# Experimental: as §1
# Two to seven days after microinjection of cRNA, patch-clamp experiments were performed using the inside-out configuration with an Axopatch 200B amplifier (Axon Instruments, Foster City, CA). Recordings were made at 20–23 °C. Data were acquired using Pulse software (HEKA Elektronik, Lambrecht, Germany). Current traces were elicited by voltage steps from a holding potential of 0 mV to +80 mV, then to −80 mV and back to 0 mV. […] We measured sensitivity to block by L-cis-diltiazem (RBI, Natick, MA) applied to the intracellular face of the patch in the presence of 0.1 μM CPT-cGMP. […] Data were analyzed using Igor (Wavemetrics, Lake Oswego, OR), SigmaPlot, and SigmaStat (Systat Software Inc., San Jose, CA). […] Statistical significance was determined using a Student t test or Mann–Whitney rank sum test, and a p value of <0.05 was considered significant.
smiles,measurement,setting,value
"Nc1ncnc2c1nc(Sc1ccc(Cl)cc1)n2[C@@H]1O[C@@H]2COP(=O)(O)O[C@H]2[C@H]1O [CPT-cAMP, CPT-adenosine 3′,5′-cyclic monophosphate]","relative agonist efficacy Imax, CPT-cAMP/Imax, CPT-cGMP","[1]; +80 mV, CPT-cAMP 100 μM vs CPT-cGMP 4 μM, mean±SEM, n=10",0.25±0.03
same,"Hill slope h, CPT-cAMP activation","[1]; Hill fit, mean±SEM, n=10",1.7±0.1
same,EC50,"[1]; Hill fit, mean±SEM, n=10, read-out: apparent affinity K1/2, CPT-cAMP (channel activation)",28100 ± 2600 nM
same,"Hill slope h, CPT-cAMP, representative dose-response","[1]; representative patch, Figure 5A",1.4
same,EC50,"[1]; representative patch, Figure 5A, read-out: K1/2,CPT-cAMP, representative dose-response",28300 nM
"Nc1nc2c(nc(Sc3ccc(Cl)cc3)n2[C@@H]2O[C@@H]3COP(=O)(O)O[C@H]3[C@H]2O)c(=O)[nH]1 [CPT-cGMP, 8-(4-chlorophenylthio) guanosine 3′,5′-cyclic monophosphate]","Hill slope h, CPT-cGMP activation",[2],2.2±0.1
same,EC50,"[2]; read-out: apparent CPT-cGMP affinity K1/2, CPT-cGMP (channel activation)",114 ± 7.9 nM
same,"Hill slope h, CPT-cGMP activation","[1]; +80 mV, Hill fit, mean±SEM, n=13",1.5±0.05
same,EC50,"[1]; +80 mV, Hill fit, mean±SEM, n=13, read-out: apparent CPT-cGMP affinity K1/2, CPT-cGMP (channel activation)",254 ± 18.1 nM
same,maximum patch current density (Imax/area),"[1]; +80 mV, saturating CPT-cGMP (4 μM), mean±SEM, n=13",55.1±10.9 pA/μm^2
same,"Hill slope h, CPT-cGMP, representative dose-response","[1]; representative patch, Figure 1B",1.5
same,EC50,"[1]; representative patch, Figure 1B, read-out: K1/2,CPT-cGMP, representative dose-response",248 nM
same,potency relative to unmodified cGMP for channel activation,"[1]; unmodified cGMP values from refs 19, 26",80–100 fold
